# Results as given in paper PMC8307938, “The Lysozyme Inhibitor Thionine Acetate Is Also an Inhibitor of the Soluble Lytic Transglycosylase Slt35 from Escherichia coli” (Molecules, 2021).
# Target: T1, Slt35 (Escherichia coli, UniProt P41052)
# T1 construct: gene mltB; N-terminal His-tag
# T1 sequence (P41052 19-361): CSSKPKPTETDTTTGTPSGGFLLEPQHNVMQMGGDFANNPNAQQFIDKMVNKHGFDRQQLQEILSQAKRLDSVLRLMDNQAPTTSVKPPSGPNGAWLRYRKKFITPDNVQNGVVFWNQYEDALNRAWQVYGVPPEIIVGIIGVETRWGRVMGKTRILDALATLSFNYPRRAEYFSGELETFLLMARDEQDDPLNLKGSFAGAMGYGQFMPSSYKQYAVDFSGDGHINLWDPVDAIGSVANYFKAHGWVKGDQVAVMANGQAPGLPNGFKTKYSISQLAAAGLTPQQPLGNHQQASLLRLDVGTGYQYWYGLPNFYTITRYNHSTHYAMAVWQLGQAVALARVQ
# Experiment: saturation transfer difference NMR ([…] compound, […] Slt35; weak; no inhibition up to […])
# Format: binding
smiles,measurement,value
OC[C@H]1NC[C@H](O)[C@@H](O)[C@@H]1O [1-deoxynojirimycin],"saturation transfer difference NMR (5 mM compound, 20 μM Slt35); weak; no inhibit","weak enhancement of signals from 1-deoxynojirimycin on selective excitation of Slt35 (Figure S1), suggesting that this compound is capable of binding"
